PubChem BioAssay AID2060910 (Molecular Pharmacology Branch, DTP, NCI, 2025)

Test system: 242566-281-R-J2-PDC complex spheroid viability
Assay: Anticancer human tumor 242566-281-R-J2-PDC patient-derived pancreatic carcinoma cell line growth inhibition [RAS]
Settings: for viability, T/C: stronger effect = lower value
Procedure, shortened: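 Tumour cells grown as complex spheroids with HUVEC endothelial cells and mesenchymal stem cells, treated with RAS pathway inhibitor combinations. Each agent spans half-log steps from near clinical Cmax, or 10 microM where Cmax is unknown.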

[1] = curve of first compound, second compound 0.000949 µM
[2] = curve of first compound, second compound 0.003 µM
[3] = curve of first compound, second compound 0.00949 µM
[4] = curve of first compound, second compound 0.03 µM
[5] = curve of first compound, second compound 0.0949 µM
[6] = curve of first compound, second compound 0.3 µM
[7] = second compound 0.000949 µM, first compound 0.0316 µM
[8] = second compound 0.000949 µM, first compound 0.1 µM
[9] = second compound 0.000949 µM, first compound 0.316 µM
[10] = second compound 0.000949 µM, first compound 1 µM
[11] = second compound 0.003 µM, first compound 0.0316 µM
[12] = second compound 0.003 µM, first compound 0.1 µM
[13] = second compound 0.003 µM, first compound 0.316 µM
[14] = second compound 0.003 µM, first compound 1 µM
[15] = second compound 0.00949 µM, first compound 0.0316 µM
[16] = second compound 0.00949 µM, first compound 0.1 µM
[17] = second compound 0.00949 µM, first compound 0.316 µM
[18] = second compound 0.00949 µM, first compound 1 µM
[19] = second compound 0.03 µM, first compound 0.0316 µM
[20] = second compound 0.03 µM, first compound 0.1 µM
[21] = second compound 0.03 µM, first compound 0.316 µM
[22] = second compound 0.03 µM, first compound 1 µM
[23] = second compound 0.0949 µM, first compound 0.0316 µM
[24] = second compound 0.0949 µM, first compound 0.1 µM
[25] = second compound 0.0949 µM, first compound 0.316 µM
[26] = second compound 0.0949 µM, first compound 1 µM
[27] = second compound 0.3 µM, first compound 0.0316 µM
[28] = second compound 0.3 µM, first compound 0.1 µM
[29] = second compound 0.3 µM, first compound 0.316 µM
[30] = second compound 0.3 µM, first compound 1 µM
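Note: spheroids exposed to compound for 7 days before readout.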
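Throughout, for viability, T/C: 100% = DMSO vehicle control wells.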

`CCN1CCN(Cc2ccc(Nc3ncc(F)c(-c4cc(F)c5nc(C)n(C(C)C)c5c4)n3)nc2)CC1` + CCn1c(-c2cccnc2C(C)OC)c2c3cc(ccc31)N1CCOC(CC(NC(=O)C(C(C)C)N(C)C(=O)C3(F)CCN(C(=O)C#CC(C)(C)N(C)C)CC3)C(=O)N3CCCC(N3)C(=O)OCC(C)(C)C2)C1 showed an IC50 [1] of over 1 µM, an IC50 [2] of over 1 µM and an IC50 [3] of over 1 µM. It also gave an IC50 [4] of over 1 µM, an IC50 [5] of over 1 µM and an IC50 [6] of over 1 µM. The viability, T/C (second compound 0.000949 µM, first compound 0.00316 µM) was 102%, the viability, T/C (second compound 0.000949 µM, first compound 0.01 µM) was 92.2% and the viability, T/C [7] was 78.6%. The viability, T/C [8] was 88.5%, the viability, T/C [9] was 102% and the viability, T/C [10] was 99.6%. For the same compound, the viability, T/C (second compound 0.003 µM, first compound 0.00316 µM) was 109%, the viability, T/C (second compound 0.003 µM, first compound 0.01 µM) was 93.5% and the viability, T/C [11] was 81.5%. For the same compound, the viability, T/C [12] was 88.2%, the viability, T/C [13] was 103% and the viability, T/C [14] was 94.7%. It also gave a viability, T/C (second compound 0.00949 µM, first compound 0.00316 µM) of 102%, a viability, T/C (second compound 0.00949 µM, first compound 0.01 µM) of 99.4% and a viability, T/C [15] of 93.1%. It also gave a viability, T/C [16] of 86.5%, a viability, T/C [17] of 98.4% and a viability, T/C [18] of 109%. For the same compound, the viability, T/C (second compound 0.03 µM, first compound 0.00316 µM) was 97.5%, the viability, T/C (second compound 0.03 µM, first compound 0.01 µM) was 94.7% and the viability, T/C [19] was 85.8%. The viability, T/C [20] was 97.2%, the viability, T/C [21] was 88.2% and the viability, T/C [22] was 117%. It also gave a viability, T/C (second compound 0.0949 µM, first compound 0.00316 µM) of 83.8%, a viability, T/C (second compound 0.0949 µM, first compound 0.01 µM) of 92.8% and a viability, T/C [23] of 93.4%. The viability, T/C [24] was 93.1%, the viability, T/C [25] was 83.8% and the viability, T/C [26] was 107%. The viability, T/C (second compound 0.3 µM, first compound 0.00316 µM) was 83.5%, the viability, T/C (second compound 0.3 µM, first compound 0.01 µM) was 79.2% and the viability, T/C [27] was 79.5%. It also gave a viability, T/C [28] of 77.7%, a viability, T/C [29] of 93% and a viability, T/C [30] of 116%.
In the case of `CCC(CC)c1cc(NC2CCC(N)C2)n2nccc2n1` (configuration not stated) + C=CC(=O)N1CCN(c2nc(OCC3CCCN3C)nc3c(F)c(-c4nc(N)cc(C)c4C(F)(F)F)c(Cl)cc23)C(C)C1, the IC50 (curve of first compound, second compound 0.00316 µM) is reported as 4.59 µM, the IC50 (curve of first compound, second compound 0.01 µM) is reported as 4.42 µM and the IC50 (curve of first compound, second compound 0.0316 µM) is reported as 3.74 µM. For the same compound, the IC50 (curve of first compound, second compound 0.1 µM) was 4.54 µM, the IC50 (curve of first compound, second compound 0.316 µM) was 3.76 µM and the IC50 (curve of first compound, second compound 1 µM) was 4.55 µM. The viability, T/C (second compound 0.00316 µM, first compound 0.0316 µM) was 108%, the viability, T/C (second compound 0.00316 µM, first compound 0.1 µM) was 141% and the viability, T/C (second compound 0.00316 µM, first compound 0.316 µM) was 94.3%. For the same compound, the viability, T/C (second compound 0.00316 µM, first compound 1 µM) was 109%, the viability, T/C (second compound 0.00316 µM, first compound 3.16 µM) was 72.6% and the viability, T/C (second compound 0.00316 µM, first compound 10 µM) was 1.71%. It also gave a viability, T/C (second compound 0.01 µM, first compound 0.0316 µM) of 121%, a viability, T/C (second compound 0.01 µM, first compound 0.1 µM) of 146% and a viability, T/C (second compound 0.01 µM, first compound 0.316 µM) of 108%. It also gave a viability, T/C (second compound 0.01 µM, first compound 1 µM) of 100%, a viability, T/C (second compound 0.01 µM, first compound 3.16 µM) of 72.8% and a viability, T/C (second compound 0.01 µM, first compound 10 µM) of 1.81%. For the same compound, the viability, T/C (second compound 0.0316 µM, first compound 0.0316 µM) was 129%, the viability, T/C (second compound 0.0316 µM, first compound 0.1 µM) was 123% and the viability, T/C (second compound 0.0316 µM, first compound 0.316 µM) was 97.1%. For the same compound, the viability, T/C (second compound 0.0316 µM, first compound 1 µM) was 98%, the viability, T/C (second compound 0.0316 µM, first compound 3.16 µM) was 58.3% and the viability, T/C (second compound 0.0316 µM, first compound 10 µM) was 1.98%. It also gave a viability, T/C (second compound 0.1 µM, first compound 0.0316 µM) of 137%, a viability, T/C (second compound 0.1 µM, first compound 0.1 µM) of 129% and a viability, T/C (second compound 0.1 µM, first compound 0.316 µM) of 106%. It also gave a viability, T/C (second compound 0.1 µM, first compound 1 µM) of 96.5%, a viability, T/C (second compound 0.1 µM, first compound 3.16 µM) of 82.5% and a viability, T/C (second compound 0.1 µM, first compound 10 µM) of 1.56%. It also gave a viability, T/C (second compound 0.316 µM, first compound 0.0316 µM) of 149%, a viability, T/C (second compound 0.316 µM, first compound 0.1 µM) of 124% and a viability, T/C (second compound 0.316 µM, first compound 0.316 µM) of 99.3%. It also gave a viability, T/C (second compound 0.316 µM, first compound 1 µM) of 102%, a viability, T/C (second compound 0.316 µM, first compound 3.16 µM) of 62.8% and a viability, T/C (second compound 0.316 µM, first compound 10 µM) of 1.81%. For the same compound, the viability, T/C (second compound 1 µM, first compound 0.0316 µM) was 125%, the viability, T/C (second compound 1 µM, first compound 0.1 µM) was 156% and the viability, T/C (second compound 1 µM, first compound 0.316 µM) was 82.7%. It also gave a viability, T/C (second compound 1 µM, first compound 1 µM) of 115%, a viability, T/C (second compound 1 µM, first compound 3.16 µM) of 75% and a viability, T/C (second compound 1 µM, first compound 10 µM) of 1.22%.
In the case of `C[C@@H](NC(=O)c1ncnc(N)c1Cl)c1ncc(C(=O)Nc2cc(C(F)(F)F)c(Cl)cn2)s1`, the viability, T/C (compound 0.0316 µM) is reported as 116% [middle of 4 runs], the viability, T/C (compound 0.1 µM) is reported as 114% [middle of 4 runs] and the viability, T/C (compound 0.316 µM) is reported as 110% [middle of 4 runs]. The viability, T/C (compound 1 µM) was 118% [middle of 4 runs], the viability, T/C (compound 3.16 µM) was 106% [middle of 4 runs] and the IC50 (curve of compound) was over 10 µM.
For `CCC(CC)c1cc(NC2CCC(N)C2)n2nccc2n1` (configuration not stated) + CCn1c(-c2cc(N3CCN(C)CC3)cnc2C(C)OC)c2c3cc(ccc31)-c1csc(n1)CC(NC(=O)C1CC1C)C(=O)N1CCCC(N1)C(=O)OCC(C)(C)C2, the IC50 [1] was 2.62 µM, the IC50 [2] was 2.04 µM and the IC50 [3] was under 0.0316 µM. The IC50 [4] was under 0.0316 µM, the IC50 [5] was under 0.0316 µM and the IC50 [6] was under 0.0316 µM. For the same compound, the viability, T/C [7] was 90.9%, the viability, T/C [8] was 88.3% and the viability, T/C [9] was 77.8%. For the same compound, the viability, T/C [10] was 90.1%, the viability, T/C (second compound 0.000949 µM, first compound 3.16 µM) was 42.9% and the viability, T/C (second compound 0.000949 µM, first compound 10 µM) was 1.28%. For the same compound, the viability, T/C [11] was 80.1%, the viability, T/C [12] was 74.2% and the viability, T/C [13] was 65.4%. For the same compound, the viability, T/C [14] was 74.9%, the viability, T/C (second compound 0.003 µM, first compound 3.16 µM) was 35.5% and the viability, T/C (second compound 0.003 µM, first compound 10 µM) was 1.04%. The viability, T/C [15] was 50.9%, the viability, T/C [16] was 39.1% and the viability, T/C [17] was 45.9%. The viability, T/C [18] was 45.8%, the viability, T/C (second compound 0.00949 µM, first compound 3.16 µM) was 18.8% and the viability, T/C (second compound 0.00949 µM, first compound 10 µM) was 1.43%. It also gave a viability, T/C [19] of 32.2%, a viability, T/C [20] of 29.8% and a viability, T/C [21] of 27.9%. It also gave a viability, T/C [22] of 29.8%, a viability, T/C (second compound 0.03 µM, first compound 3.16 µM) of 7.89% and a viability, T/C (second compound 0.03 µM, first compound 10 µM) of 2.28%. It also gave a viability, T/C [23] of 22.3%, a viability, T/C [24] of 21% and a viability, T/C [25] of 23.2%. The viability, T/C [26] was 24.5%, the viability, T/C (second compound 0.0949 µM, first compound 3.16 µM) was 8.03% and the viability, T/C (second compound 0.0949 µM, first compound 10 µM) was 1.49%. For the same compound, the viability, T/C [27] was 20.7%, the viability, T/C [28] was 19.7% and the viability, T/C [29] was 20.5%. For the same compound, the viability, T/C [30] was 20.9%, the viability, T/C (second compound 0.3 µM, first compound 3.16 µM) was 6.77% and the viability, T/C (second compound 0.3 µM, first compound 10 µM) was 1.47%.
